Experimental data published in ChEMBL document CHEMBL3044921, “Synthesis, characterization, and SAR studies of new (1H-indol-3-yl)alkyl-3-(1H-indol-3-yl)propanamide derivatives as possible antimicrobial and antitubercular agents” (2013).

What was measured:
[1] = system: Mycolicibacterium fortuitum; test: Antitubercular activity against Mycobacterium fortuitum ATCC 19542 assessed as growth inhibition at 0.3125 to 5 ug/mL after 7 days by resazurin reduction test; assay type: functional; conditions: ATCC 19542, 168 h
Candida albicans [2] = test: Antifungal activity against Candida albicans assessed as growth inhibition at […] to […] ug/ml after 3 to 4 days by agar well diffusion method; assay type: functional
Pseudomonas aeruginosa [3] = test: Antibacterial activity against Pseudomonas aeruginosa ATCC 27853 assessed as growth inhibition after 16 to 18 hr by serial plate dilution method; assay type: functional
Klebsiella pneumoniae [4] = assay type: functional
Description: Antibacterial activity against Klebsiella pneumoniae assessed as growth inhibition at 1.56 to 25 ug/ml after 3 to 4 days by agar well diffusion method

[5] = system: Mycobacterium tuberculosis; test: Antitubercular activity against Mycobacterium tuberculosis H37Rv ATCC 27294 assessed as growth inhibition at 1 to 100 ug/mL after 7 days by resazurin reduction test; assay type: functional; conditions: for MIC: Mycobacterium tuberculosis, H37Rv ATCC 27294, 168 h
Talaromyces marneffei [6] = test: Antifungal activity against Talaromyces marneffei assessed as growth inhibition at […] to […] ug/ml after 3 to 4 days by agar well diffusion method; assay type: functional
Aspergillus flavus [7] = test: Antifungal activity against Aspergillus flavus NCIM 524 assessed as growth inhibition after 3 to 4 days by serial plate dilution method; assay type: functional
Aspergillus fumigatus [8] = test: Antifungal activity against Aspergillus fumigatus NCIM 902 assessed as growth inhibition after 3 to 4 days by serial plate dilution method; assay type: functional
Aspergillus flavus [9] = test: Antifungal activity against Aspergillus flavus NCIM 524 assessed as growth inhibition at […] to […] ug/ml after 3 to 4 days by agar well diffusion method; assay type: functional
Aspergillus fumigatus [10] = test: Antifungal activity against Aspergillus fumigatus NCIM 902 assessed as growth inhibition at […] to […] ug/ml after 3 to 4 days by agar well diffusion method; assay type: functional
[11] = system: Trichophyton mentagrophytes; test: Antifungal activity against Trichophyton mentagrophytes assessed as growth inhibition at […] to […] ug/ml after 3 to 4 days by agar well diffusion method; assay type: functional
Escherichia coli [12] = test: Antibacterial activity against Escherichia coli […] assessed as growth inhibition after 16 to 18 hr by serial plate dilution method; assay type: functional
[13] = system: Trichophyton mentagrophytes; test: Antifungal activity against Trichophyton mentagrophytes assessed as growth inhibition after 3 to 4 days by serial plate dilution method; assay type: functional
Pseudomonas aeruginosa [14] = assay type: functional, ATCC 27853
Description: Antibacterial activity against Pseudomonas aeruginosa ATCC 27853 assessed as growth inhibition at 1.56 to 25 ug/ml after 3 to 4 days by agar well diffusion method

Staphylococcus aureus [15] = assay type: functional, ATCC 25923
Description: Antibacterial activity against Staphylococcus aureus ATCC 25923 assessed as growth inhibition at 1.56 to 25 ug/ml after 3 to 4 days by agar well diffusion method

Candida albicans [16] = test: Antifungal activity against Candida albicans assessed as growth inhibition after 3 to 4 days by serial plate dilution method; assay type: functional
Staphylococcus aureus [17] = test: Antibacterial activity against Staphylococcus aureus ATCC 25923 assessed as growth inhibition after 16 to 18 hr by serial plate dilution method; assay type: functional
[18] = system: Mycobacterium tuberculosis; test: Antitubercular activity against Mycobacterium tuberculosis H37Rv ATCC 27294 assessed as growth inhibition at 0.3125 to 5 ug/mL after 7 days by resazurin reduction test; assay type: functional; conditions: H37Rv ATCC 27294, 168 h
[19] = system: Mycolicibacterium smegmatis; test: Antitubercular activity against Mycobacterium smegmatis ATCC 19420 assessed as growth inhibition at 1 to 100 ug/mL after 7 days by resazurin reduction test; assay type: functional; conditions: ATCC 19420, 168 h
Streptococcus pyogenes [20] = assay type: functional
Description: Antibacterial activity against Streptococcus pyogenes assessed as growth inhibition at 1.56 to 25 ug/ml after 3 to 4 days by agar well diffusion method

Talaromyces marneffei [21] = test: Antifungal activity against Talaromyces marneffei assessed as growth inhibition after 3 to 4 days by serial plate dilution method; assay type: functional
[22] = system: Mycolicibacterium smegmatis; test: Antitubercular activity against Mycobacterium smegmatis ATCC 19420 assessed as growth inhibition at 0.3125 to 5 ug/mL after 7 days by resazurin reduction test; assay type: functional; conditions: ATCC 19420, 168 h
[23] = system: Mycolicibacterium fortuitum; test: Antitubercular activity against Mycobacterium fortuitum ATCC 19542 assessed as growth inhibition at 1 to 100 ug/mL after 7 days by resazurin reduction test; assay type: functional; conditions: ATCC 19542, 168 h
Streptococcus pyogenes [24] = test: Antibacterial activity against Streptococcus pyogenes assessed as growth inhibition after 16 to 18 hr by serial plate dilution method; assay type: functional
Escherichia coli [25] = assay type: functional, ATCC 24922
Description: Antibacterial activity against Escherichia coli ATCC 24922 assessed as growth inhibition at 1.56 to 25 ug/ml after 3 to 4 days by agar well diffusion method

Klebsiella pneumoniae [26] = test: Antibacterial activity against Klebsiella pneumoniae assessed as growth inhibition after 16 to 18 hr by serial plate dilution method; assay type: functional

Cn1cc(CCC(=O)NCc2c[nH]c3ccc(Cl)cc23)c2cc(Cl)ccc21
16 mm: diameter of the inhibition zone (DIZ) (Candida albicans [2]) | diameter of the inhibition zone (DIZ) (Klebsiella pneumoniae [4]) | diameter of the inhibition zone (DIZ) (Talaromyces marneffei [6]) | diameter of the inhibition zone (DIZ) (Aspergillus flavus [9]) | diameter of the inhibition zone (DIZ) (Aspergillus fumigatus [10]) | diameter of the inhibition zone (DIZ) [11] | diameter of the inhibition zone (DIZ) (Staphylococcus aureus [15]) | diameter of the inhibition zone (DIZ) (Streptococcus pyogenes [20]) | diameter of the inhibition zone (DIZ) (Escherichia coli [25])
10 µg/mL: MIC [1] | MIC [19] | MIC [22] | MIC [23]
25 µg/mL: MIC (Pseudomonas aeruginosa [3])
<10 mm: diameter of the inhibition zone (DIZ) (Pseudomonas aeruginosa [14])
6.25 µg/mL: MIC (Aspergillus flavus [7]) | MIC (Aspergillus fumigatus [8]) | MIC (Escherichia coli [12]) | MIC [13] | MIC (Candida albicans [16]) | MIC (Staphylococcus aureus [17]) | MIC (Talaromyces marneffei [21]) | MIC (Streptococcus pyogenes [24]) | MIC (Klebsiella pneumoniae [26])
0.625 µg/mL: MIC [18]
1 µg/mL: MIC [5]
95%: growth inhibition (GI) [5]

Cn1cc(CCCNC(=O)CCc2cn(C)c3ccc(Cl)cc23)c2cc(Cl)ccc21
<10 mm: diameter of the inhibition zone (DIZ) (Candida albicans [2]) | diameter of the inhibition zone (DIZ) (Klebsiella pneumoniae [4]) | diameter of the inhibition zone (DIZ) (Talaromyces marneffei [6]) | diameter of the inhibition zone (DIZ) (Pseudomonas aeruginosa [14]) | diameter of the inhibition zone (DIZ) (Streptococcus pyogenes [20]) | diameter of the inhibition zone (DIZ) (Escherichia coli [25])
25 µg/mL: MIC (Pseudomonas aeruginosa [3]) | MIC (Escherichia coli [12]) | MIC (Candida albicans [16]) | MIC (Talaromyces marneffei [21]) | MIC (Streptococcus pyogenes [24]) | MIC (Klebsiella pneumoniae [26])
> 100 µg/mL: MIC [23]
11 mm: diameter of the inhibition zone (DIZ) (Aspergillus flavus [9]) | diameter of the inhibition zone (DIZ) (Aspergillus fumigatus [10]) | diameter of the inhibition zone (DIZ) [11] | diameter of the inhibition zone (DIZ) (Staphylococcus aureus [15])
12.5 µg/mL: MIC (Aspergillus flavus [7]) | MIC (Aspergillus fumigatus [8]) | MIC [13] | MIC (Staphylococcus aureus [17])
5 µg/mL: MIC [18]
<90%: growth inhibition (GI) [5]
10 µg/mL: MIC [5] | MIC [19] | MIC [22]

Cc1[nH]c2ccc(OC(F)(F)F)cc2c1CCCNC(=O)CCc1c[nH]c2ccc(Cl)cc12
6.25 µg/mL: MIC (Pseudomonas aeruginosa [3]) | MIC (Aspergillus flavus [7]) | MIC (Aspergillus fumigatus [8]) | MIC (Escherichia coli [12]) | MIC [13] | MIC (Candida albicans [16]) | MIC (Staphylococcus aureus [17]) | MIC (Talaromyces marneffei [21]) | MIC (Streptococcus pyogenes [24]) | MIC (Klebsiella pneumoniae [26])
10 µg/mL: MIC [1] | MIC [5] | MIC [19] | MIC [22] | MIC [23]
16 mm: diameter of the inhibition zone (DIZ) (Candida albicans [2]) | diameter of the inhibition zone (DIZ) (Klebsiella pneumoniae [4]) | diameter of the inhibition zone (DIZ) (Talaromyces marneffei [6]) | diameter of the inhibition zone (DIZ) (Aspergillus flavus [9]) | diameter of the inhibition zone (DIZ) (Aspergillus fumigatus [10]) | diameter of the inhibition zone (DIZ) [11] | diameter of the inhibition zone (DIZ) (Pseudomonas aeruginosa [14]) | diameter of the inhibition zone (DIZ) (Staphylococcus aureus [15]) | diameter of the inhibition zone (DIZ) (Streptococcus pyogenes [20]) | diameter of the inhibition zone (DIZ) (Escherichia coli [25])
<90%: growth inhibition (GI) [5]
2.5 µg/mL: MIC [18]

Cn1cc(CCC(=O)NCCCc2c[nH]c3ccc(OC(F)(F)F)cc23)c2cc(Cl)ccc21
16 mm: diameter of the inhibition zone (DIZ) (Candida albicans [2]) | diameter of the inhibition zone (DIZ) (Staphylococcus aureus [15]) | diameter of the inhibition zone (DIZ) (Streptococcus pyogenes [20])
11 mm: diameter of the inhibition zone (DIZ) (Klebsiella pneumoniae [4]) | diameter of the inhibition zone (DIZ) (Aspergillus flavus [9]) | diameter of the inhibition zone (DIZ) (Aspergillus fumigatus [10]) | diameter of the inhibition zone (DIZ) (Pseudomonas aeruginosa [14]) | diameter of the inhibition zone (DIZ) (Escherichia coli [25])
95%: growth inhibition (GI) [5]
0.625 µg/mL: MIC [18]
<10 mm: diameter of the inhibition zone (DIZ) (Talaromyces marneffei [6]) | diameter of the inhibition zone (DIZ) [11]
1 µg/mL: MIC [5]
6.25 µg/mL: MIC (Candida albicans [16]) | MIC (Staphylococcus aureus [17]) | MIC (Streptococcus pyogenes [24])
25 µg/mL: MIC [13] | MIC (Talaromyces marneffei [21])
12.5 µg/mL: MIC (Pseudomonas aeruginosa [3]) | MIC (Aspergillus flavus [7]) | MIC (Aspergillus fumigatus [8]) | MIC (Escherichia coli [12]) | MIC (Klebsiella pneumoniae [26])
10 µg/mL: MIC [1] | MIC [19] | MIC [22] | MIC [23]
